# Assay results taken from patent US20240041804A1, “NHE-1 INHIBITORS FOR THE TREATMENT OF CORONAVIRUS INFECTIONS” (priority 2020, published 2024).
# “Also recorded” adds a separate entry of the source. Where two headings read alike, the source gives them in different places.
# Columns and labels:
# [1] = molecular target: SARS-CoV envelope protein ion channels (SARS-CoV E protein) (Severe acute respiratory syndrome coronavirus, UniProt P59637); conditions: cited from earlier work
# [2] = tested on: LPS induced lung injury; conditions: amiloride pretreatment 10 mg/kg intravenous injection, rats; cited from earlier work
# [3] = tested on: store-operated calcium entry (SOCE); test: Store-operated calcium entry (45Ca2+ accumulation) in myotubes; assay type: cell-based
# [4] = molecular target: T1, NHE-1 (Mus musculus, UniProt Q61165); test: 22Na+ influx in myotube cultures; assay type: cell-based
# T1 construct: time-course of ^22Na^+ influx studied in wild type and dystrophic myotube cultures; endogenous in cells; host or cells: primary wild type and dystrophic myotubes
# T1 sequence (Q61165 whole entry): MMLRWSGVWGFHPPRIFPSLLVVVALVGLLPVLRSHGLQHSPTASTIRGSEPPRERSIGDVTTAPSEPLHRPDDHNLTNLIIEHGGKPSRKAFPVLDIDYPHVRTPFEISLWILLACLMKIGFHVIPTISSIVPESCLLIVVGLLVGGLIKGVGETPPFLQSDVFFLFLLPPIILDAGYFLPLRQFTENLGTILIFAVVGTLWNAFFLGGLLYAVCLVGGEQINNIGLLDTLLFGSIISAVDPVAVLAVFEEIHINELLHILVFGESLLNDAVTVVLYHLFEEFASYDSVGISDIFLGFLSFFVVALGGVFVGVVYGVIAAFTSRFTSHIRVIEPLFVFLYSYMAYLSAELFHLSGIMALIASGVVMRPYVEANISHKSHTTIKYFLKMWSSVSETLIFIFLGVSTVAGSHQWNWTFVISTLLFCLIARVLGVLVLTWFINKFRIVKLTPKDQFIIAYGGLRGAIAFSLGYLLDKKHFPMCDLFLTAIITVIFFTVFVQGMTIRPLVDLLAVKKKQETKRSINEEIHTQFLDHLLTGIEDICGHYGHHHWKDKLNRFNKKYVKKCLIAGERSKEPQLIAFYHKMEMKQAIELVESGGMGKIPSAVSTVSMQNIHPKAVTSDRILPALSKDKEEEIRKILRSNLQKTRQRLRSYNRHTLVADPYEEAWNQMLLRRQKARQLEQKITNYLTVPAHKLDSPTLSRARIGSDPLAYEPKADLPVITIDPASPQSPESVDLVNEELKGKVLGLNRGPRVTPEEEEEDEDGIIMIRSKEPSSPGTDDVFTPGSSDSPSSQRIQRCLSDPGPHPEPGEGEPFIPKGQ
# [5] = tested on: human platelet swelling; test: In vitro platelet swelling assay with human platelet rich plasma; assay type: cell-based; conditions: OD 680 nm, pH 6.6, read-out: IC50 of inhibition of platelet swelling (+SEM)
# [6] = tested on: platelet swelling; test: Ex vivo platelet swelling, Eniporide phase I studies in healthy subjects; design: species or system human
# [7] = tested on: platelet aggregation
# [8] = tested on: male mdx mice; test: Cathepsin enzyme activity by optical imaging (skeletal muscle inflammation) in mdx mice; assay type: in vivo, mouse; conditions: 400 ppm Rimeporide in food, 5 weeks
# [9] = tested on: male mdx mice; test: Ex vivo H&E histopathology of diaphragm inflammation in mdx mice; design: species or system mouse; conditions: 400 ppm Rimeporide
# [10] = tested on: platelet swelling; test: Ex vivo platelet swelling, Rimeporide single oral ascending dose study; assay type: in vivo, human; conditions: single oral dose 300 to 600 mg, healthy male volunteers
# [11] = tested on: platelet swelling; test: Ex vivo platelet swelling, Rimeporide multiple ascending dose study; assay type: in vivo, human; conditions: day 3, multiple ascending dose study
# [12] = molecular target: T2, sodium-hydrogen exchange activity (NHE-1) (Rattus norvegicus, UniProt P26431); test: NHE activity (BCECF) in rat pulmonary arterial smooth muscle cells; assay type: cell-based; conditions: PASMCs of Su/Hx pulmonary hypertension rats, 10^-6 to 10^-4 M
# T2 construct: performed in rat PASMCs in vitro of both Normoxic and Su/Hx pulmonary hypertension (PH) rats; endogenous in cells; host or cells: primary rat PASMCs from normoxic and Su/Hx pulmonary hypertension rats
# T2 sequence (P26431 whole entry): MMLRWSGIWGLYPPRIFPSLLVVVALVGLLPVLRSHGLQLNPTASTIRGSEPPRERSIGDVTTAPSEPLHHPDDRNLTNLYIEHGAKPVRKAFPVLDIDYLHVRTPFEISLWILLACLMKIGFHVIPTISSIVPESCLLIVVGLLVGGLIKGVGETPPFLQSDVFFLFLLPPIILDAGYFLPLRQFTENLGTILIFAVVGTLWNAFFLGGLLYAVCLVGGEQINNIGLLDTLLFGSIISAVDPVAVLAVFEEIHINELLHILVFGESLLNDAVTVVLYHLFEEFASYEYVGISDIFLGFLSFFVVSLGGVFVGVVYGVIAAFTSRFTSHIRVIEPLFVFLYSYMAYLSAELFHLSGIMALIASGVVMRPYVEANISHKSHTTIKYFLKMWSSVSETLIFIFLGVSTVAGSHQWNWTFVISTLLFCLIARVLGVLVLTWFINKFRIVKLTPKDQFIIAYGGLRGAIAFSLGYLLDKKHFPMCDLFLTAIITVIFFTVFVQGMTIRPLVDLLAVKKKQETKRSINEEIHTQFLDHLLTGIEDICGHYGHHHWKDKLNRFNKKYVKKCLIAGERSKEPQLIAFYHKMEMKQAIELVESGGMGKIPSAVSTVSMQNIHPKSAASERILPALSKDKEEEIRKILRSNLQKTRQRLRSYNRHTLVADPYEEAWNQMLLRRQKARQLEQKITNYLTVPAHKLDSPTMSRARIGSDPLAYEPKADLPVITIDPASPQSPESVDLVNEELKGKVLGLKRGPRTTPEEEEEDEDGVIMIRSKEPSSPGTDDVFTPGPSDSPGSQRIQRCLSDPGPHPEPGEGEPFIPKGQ
# [13] = tested on: Su/Hx rat model of PAH; test: Su/Hx rat model of PAH: echocardiography; assay type: in vivo; conditions: 100 mg/kg/day in drinking water week 5-8; Su/Hx+Rime vs Su/Hx, week 8
# [14] = tested on: Su/Hx rat model of PAH; test: Su/Hx rat model of PAH: invasive hemodynamic monitoring; assay type: in vivo; conditions: 100 mg/kg/day in drinking water week 5-8; Su/Hx+Rime vs Su/Hx, week 8
# [15] = tested on: Su/Hx rat model of PAH; test: Su/Hx rat model of PAH: right ventricle hypertrophy and fibrosis; assay type: in vivo; conditions: 100 mg/kg/day in drinking water week 5-8; Su/Hx+Rime vs Su/Hx, week 8
# [16] = tested on: Su/Hx rat model of PAH; test: Su/Hx rat model of PAH: pulmonary vascular fibrosis (Masson trichome); assay type: in vivo; conditions: 100 mg/kg/day in drinking water week 5-8; Su/Hx+Rime vs Su/Hx, week 8
# [17] = tested on: Su/Hx rat model of PAH; test: Su/Hx rat model of PAH: lung inflammation (CD68); assay type: in vivo; conditions: 100 mg/kg/day in drinking water week 5-8; Su/Hx+Rime vs Su/Hx, week 8
# [18] = tested on: rat model of heart failure; test: Rat model of heart failure after myocardial infarction (permanent left coronary artery ligation); assay type: in vivo
# [19] = tested on: rat model of myocardial infarction; test: Rat model of myocardial infarction (30 min occlusion, 90 min reperfusion); assay type: in vivo; conditions: prophylactic, 0.01 to 1 mg/kg intravenously and 0.1 to 1 mg/kg per os
# [20] = tested on: pigs of myocardial infarction; test: Anesthetized open-chest pig model of myocardial infarction; assay type: in vivo; conditions: 1 mg/kg iv before occlusion, 7 mg/kg iv before reperfusion
# [21] = tested on: dystrophic, mdx mice; test: Fibrosis in heart and diaphragm of mdx mice; assay type: in vivo, mouse; conditions: given in a preventive manner
# [22] = single oral dose
# [23] = tested on: plasma circulating biomarkers (CCL15, KLK6, FAS, TNFα, MCP-1/CCL2); design: Term, TNFα: unit not given here; conditions: DMD patients, 4-week oral treatment, cited from earlier work
# SARS-CoV envelope protein ion channels (SARS-CoV E protein), sequence (P59637 whole entry, looked up): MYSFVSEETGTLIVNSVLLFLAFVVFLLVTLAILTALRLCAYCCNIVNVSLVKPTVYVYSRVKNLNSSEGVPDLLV
structure (smiles),measurement,setting,value
"NC(N)=NC(=O)c1nc(Cl)c(N)nc1N [Amiloride, 3,5-Diamino-N-carbamimidoyl-6-chlorpyrazin-2-carbamid]",effect on activity of E-proteins (ion channel),[1],quasi-ineffective
same,LPS induced lung injury,[2],significantly inhibited
"Cc1nnsc1C(=O)Nc1ccc(-n2nc(C(F)(F)F)cc2C(F)(F)F)cc1 [BTP-2, reference compound]",effect on store-operated calcium entry (SOCE),[3],abolished
same,inhibition of Ca2+ flux (SOCE protocol),[3]; 10 μM,almost complete inhibition
"CC(C)c1ccc(C(=O)NC(=N)N)cc1S(C)(=O)=O [Cariporide, N-(Diaminomethylidene)-3-methanesulfonyl-4-(propan-2-yl) benzamide]",comparison of NHE inhibitors on 22Na+ fluxes (rank order),[4],"Zoniporide>Cariporide, EIPA>Rimeporide"
same,comparison of NHE inhibitors on SOCE (rank order),[3],"Zoniporide>Cariporide, EIPA>Rimeporide"
same,IC50,[5],166 nM
"CCN(c1nc(N)c(C(=O)N=C(N)N)nc1Cl)C(C)C [EIPA, 5-(N-ethyl-N-isopropyl)amiloride, reference compound]",comparison of NHE inhibitors on 22Na+ fluxes (rank order),[4]; myotubes,"Zoniporide>Cariporide, EIPA>Rimeporide"
same,comparison of NHE inhibitors on SOCE (rank order),[3]; myotubes,"Zoniporide>Cariporide, EIPA>Rimeporide"
"Cc1cc(-n2cccc2)c(S(C)(=O)=O)cc1C(=O)NC(=N)N [Eniporide, N-(diaminomethylidene)-2-methyl-5-methylsulfonyl-4-pyrrol-1-ylbenzamide]",IC50,[5],30 nM
same,inhibition of platelet swelling immediately post dosing,"[6]; 50 mg and above, intravenous",total inhibition
same,inhibitory activity on platelet swelling,"[6]; 2 times 200 mg as an infusion, 6 hours post first dose",80%
same,inhibitory activity on platelet swelling remaining,"[6]; 1.5 hours post dose, doses 100-200 mg",More than 80%
same,inhibitory activity on platelet swelling remaining,"[6]; 3 hours post dose, doses 250-400 mg",More than 80%
same,dose from which platelet swelling was reduced,"[6]; healthy subjects, single intravenous dose",≥ 5 mg
same,effect on platelet aggregation,"[7]; human, in vivo",No clinically relevant effect
same,effects on PT or APTT,"human, in vivo",no clinically relevant effects
"NC(N)=NC(=O)c1nc(Cl)c(N2CCCCCC2)nc1N [HMA, 5-N, N-(hexamethylene)amiloride]",effect on activity of E-proteins (ion channel),[1],significantly reduced activity of E-proteins
"Cc1cc(S(C)(=O)=O)c(S(C)(=O)=O)cc1C(=O)NC(=N)N [Rimeporide, N-(4,5-bismethanesulfonyl-2-methylbenzoyl)guanidine]","reduction in Cathepsin B activity, forelimb",[8]; forelimb,−26%
same,"reduction in Cathepsin B activity, hindlimb",[8]; hindlimb,−22%
same,reduction in inflammation in the diaphragm (H&E) relative to vehicle,[9],44%
same,inhibition at 100 µM,"[4]; 100 μM, after 10 to 20 min of influx, myotube cultures, read-out: inhibition of 22Na+ accumulation / Na+ influx",~40%
same,comparison of NHE inhibitors on 22Na+ fluxes (rank order),[4]; myotubes,weakest inhibitor
same,effect on 22Na+ accumulation,"[4]; pretreatment 1-100 μM, normal and dystrophic myotubes",dose-dependent inhibition
same,effect on store-operated calcium entry (SOCE),[3],inhibition of SOCE; also recorded: dose-dependently prevented SOCE
same,concentration giving strong SOCE inhibition reaching basal levels,[3]; dystrophic myotubes,30 µM
same,lowest concentration with statistical differences in SOCE inhibition,[3]; dystrophic myotubes,3 µM
same,comparison of NHE inhibitors on SOCE (rank order),[3]; myotubes,weakest inhibitor
same,IC50,[5],455 nM
same,rate constant of platelet swelling reaction post-dose vs pre-dose,[10],post-dose decrease in rate constant was consistently observed
same,subjects with some evidence of platelet swelling inhibition,[11],67%
same,effect on NHE activity in PASMCs,[12],inhibits NHE activity in the PASMCs in a dose-dependent manner
same,Mean Pulmonary Arterial Pressure (mPAP),[13],significantly lower mPAP
same,Pulmonary Artery Acceleration Time/Ejection Time (PA AT/ET),[13],significantly higher PA AT/ET ratio
same,RV cardiac output (CO),[13],significantly higher RV CO
same,RV free wall thickness,[13],significantly lower RV free wall thickness
same,RV internal diameter at diastole,[13],significantly lower RV internal diameter
same,RV End Diastolic Pressure (EDP),[14],significantly lower pressure
same,RV Tau,[14],significantly lower Tau
same,RV systolic pressure,[14],significantly lower pressure
same,RV fibrosis (Sirius Red),[15],significantly lower fibrosis
same,Right Ventricle/Left Ventricle+Septum (RV/LV+S) weight ratio,[15],no statistically significant difference
same,pulmonary vascular fibrosis,[16],significantly lower fibrosis
same,percentage of CD68+ cells relative to total nuclei in lung tissue,[17],significantly lower
same,myocardial hypertrophy and left ventricular function,[18],significantly and dose dependently reduce myocardial hypertrophy and preserve left ventricular function
same,survival,[18],substantial improvement in survival
same,infarct size,[19],reduce dose dependent infarct size
same,infarct size,[20],decrease infarct size
same,fibrosis in the heart and the diaphragm,[21],antifibrotic effect
same,"plasma concentration, Subject 15",[22]; 1 hour post-dose,159 ng/mL
same,"plasma concentration, Subject 15",[22]; 3 hours post-dose,3690 ng/mL
same,effect on platelet aggregation,"[7]; Rimeporide single oral dose, 10 μM ADP, 3, 24 and 48 hours post-dose",no evidence of inhibition of platelet aggregation
same,effects on PT and APTT,Rimeporide single oral dose study,No effects
same,"Term, TNFα",[23]; Luminex,−0.1726
same,"Term, CCL15",[23]; OLink,−0.4489
same,"Term, FAS",[23]; OLink,−0.2823
same,"Term, KLK6",[23]; OLink,−0.2612
same,"Term, MCP-1/CCL2",[23]; OLink,−0.5675
"N=C(N)NC(=O)c1cnn(-c2cccc3ncccc23)c1C1CC1 [Zoniporide, reference compound]",comparison of NHE inhibitors on 22Na+ fluxes (rank order),[4]; myotubes,"Zoniporide>Cariporide, EIPA>Rimeporide"
same,comparison of NHE inhibitors on SOCE (rank order),[3],"Zoniporide>Cariporide, EIPA>Rimeporide"
NC1=N[C@H](O)[C@H]2[C@H]3O[C@]4(O)O[C@@H]([C@@H](O)[C@@]2(N1)[C@@H]4O)[C@]3(O)CO [tetrodotoxin],further decrease of 22Na+ influx,[4],around 8%
